ChEMBL document CHEMBL1201862, “PubChem BioAssay data set” (2004)
Active and inactive are the calls of the source.

Experiments:
Exodeoxyribonuclease V = target: T1, Exodeoxyribonuclease V (Escherichia coli (strain K12), UniProt P04993+P07648+P08394); assay: E. coli RecBCD inhibitors, dose response, counter-screen for AddAB inhibitor project, absorbance, V66 E. coli, mutant T4 phage (AID 492957); type: functional, cell-based, Escherichia coli str. K-12 substr. MG1655
T1 sequence (P04993 whole entry): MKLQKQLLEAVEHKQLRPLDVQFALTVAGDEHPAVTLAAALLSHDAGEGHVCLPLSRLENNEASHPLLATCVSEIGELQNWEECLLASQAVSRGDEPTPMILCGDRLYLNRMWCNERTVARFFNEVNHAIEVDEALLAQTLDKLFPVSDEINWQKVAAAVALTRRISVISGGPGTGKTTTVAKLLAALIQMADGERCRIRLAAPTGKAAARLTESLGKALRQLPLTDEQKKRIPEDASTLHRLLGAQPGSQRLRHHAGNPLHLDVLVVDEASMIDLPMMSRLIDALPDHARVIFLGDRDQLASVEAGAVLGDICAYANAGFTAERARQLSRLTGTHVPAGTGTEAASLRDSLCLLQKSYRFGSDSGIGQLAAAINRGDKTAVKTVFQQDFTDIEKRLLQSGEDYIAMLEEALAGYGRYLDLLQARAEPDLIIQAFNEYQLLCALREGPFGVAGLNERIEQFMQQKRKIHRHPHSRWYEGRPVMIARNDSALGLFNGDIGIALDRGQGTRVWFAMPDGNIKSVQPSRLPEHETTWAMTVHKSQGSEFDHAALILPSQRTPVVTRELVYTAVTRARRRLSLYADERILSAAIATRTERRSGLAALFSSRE
T1 sequence (P07648 whole entry): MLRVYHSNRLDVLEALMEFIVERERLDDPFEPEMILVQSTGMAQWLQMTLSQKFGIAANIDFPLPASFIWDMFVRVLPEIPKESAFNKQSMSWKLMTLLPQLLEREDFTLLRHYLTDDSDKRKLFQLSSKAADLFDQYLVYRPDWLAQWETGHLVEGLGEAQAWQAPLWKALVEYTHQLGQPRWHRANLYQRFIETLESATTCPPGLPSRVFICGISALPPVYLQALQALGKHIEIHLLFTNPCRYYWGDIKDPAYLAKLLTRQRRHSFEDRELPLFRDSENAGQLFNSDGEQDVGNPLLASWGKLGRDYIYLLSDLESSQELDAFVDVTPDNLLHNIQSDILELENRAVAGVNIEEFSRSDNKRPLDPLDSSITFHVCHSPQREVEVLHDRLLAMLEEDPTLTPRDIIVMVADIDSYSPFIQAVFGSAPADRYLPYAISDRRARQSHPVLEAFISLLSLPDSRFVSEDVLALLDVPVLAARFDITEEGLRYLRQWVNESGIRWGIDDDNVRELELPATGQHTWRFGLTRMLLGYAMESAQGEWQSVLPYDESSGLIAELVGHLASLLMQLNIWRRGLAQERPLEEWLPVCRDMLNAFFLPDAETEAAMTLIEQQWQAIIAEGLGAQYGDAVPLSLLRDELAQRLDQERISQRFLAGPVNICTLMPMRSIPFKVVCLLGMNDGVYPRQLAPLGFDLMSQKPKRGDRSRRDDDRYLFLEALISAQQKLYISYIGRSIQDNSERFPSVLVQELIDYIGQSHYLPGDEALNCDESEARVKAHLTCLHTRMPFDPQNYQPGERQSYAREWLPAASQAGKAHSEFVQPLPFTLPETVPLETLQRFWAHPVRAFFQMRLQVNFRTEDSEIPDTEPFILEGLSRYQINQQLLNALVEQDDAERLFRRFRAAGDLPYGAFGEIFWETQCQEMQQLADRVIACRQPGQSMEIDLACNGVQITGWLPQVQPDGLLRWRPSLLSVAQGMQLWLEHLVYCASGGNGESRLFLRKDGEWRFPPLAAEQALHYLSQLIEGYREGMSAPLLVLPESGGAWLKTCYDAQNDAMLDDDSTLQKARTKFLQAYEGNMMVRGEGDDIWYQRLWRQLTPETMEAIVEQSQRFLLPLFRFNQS
T1 sequence (P08394 whole entry): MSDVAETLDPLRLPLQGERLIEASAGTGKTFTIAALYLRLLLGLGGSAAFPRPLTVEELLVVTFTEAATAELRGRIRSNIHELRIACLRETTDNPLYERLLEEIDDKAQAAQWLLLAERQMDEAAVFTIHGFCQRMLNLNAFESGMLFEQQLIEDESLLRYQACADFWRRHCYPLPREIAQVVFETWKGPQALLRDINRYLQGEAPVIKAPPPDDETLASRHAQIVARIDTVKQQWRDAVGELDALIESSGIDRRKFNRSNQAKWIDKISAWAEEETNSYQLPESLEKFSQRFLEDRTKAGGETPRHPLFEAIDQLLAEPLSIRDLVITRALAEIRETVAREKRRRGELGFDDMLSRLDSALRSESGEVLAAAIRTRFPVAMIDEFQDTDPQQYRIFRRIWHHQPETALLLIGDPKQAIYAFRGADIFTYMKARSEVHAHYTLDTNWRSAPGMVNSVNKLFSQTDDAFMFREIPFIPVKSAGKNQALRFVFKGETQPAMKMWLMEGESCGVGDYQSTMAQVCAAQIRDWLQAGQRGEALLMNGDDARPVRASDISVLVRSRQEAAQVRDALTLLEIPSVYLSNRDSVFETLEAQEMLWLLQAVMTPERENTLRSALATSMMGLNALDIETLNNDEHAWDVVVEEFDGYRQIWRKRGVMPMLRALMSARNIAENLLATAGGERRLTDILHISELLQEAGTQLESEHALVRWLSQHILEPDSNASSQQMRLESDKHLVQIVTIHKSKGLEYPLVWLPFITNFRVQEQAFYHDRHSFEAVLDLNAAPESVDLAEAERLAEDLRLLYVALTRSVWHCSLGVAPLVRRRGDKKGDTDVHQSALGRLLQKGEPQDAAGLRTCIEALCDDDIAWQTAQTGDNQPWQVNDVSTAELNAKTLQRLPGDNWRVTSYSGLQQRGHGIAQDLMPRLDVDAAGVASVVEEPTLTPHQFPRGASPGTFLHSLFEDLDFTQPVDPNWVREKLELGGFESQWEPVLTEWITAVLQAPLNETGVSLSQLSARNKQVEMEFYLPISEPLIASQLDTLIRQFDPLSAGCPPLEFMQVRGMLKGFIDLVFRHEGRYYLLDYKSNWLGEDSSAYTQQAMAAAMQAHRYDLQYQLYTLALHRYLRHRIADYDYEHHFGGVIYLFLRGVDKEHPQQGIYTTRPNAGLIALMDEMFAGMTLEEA

Caspase-3 = target: T2, Caspase-3 (Homo sapiens, UniProt P42574); type: functional;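 further: Dose-response selectivity test against caspase-3 for candidate inhibitors of sentrin-specific proteases (SENPs)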
T2 sequence (P42574 whole entry): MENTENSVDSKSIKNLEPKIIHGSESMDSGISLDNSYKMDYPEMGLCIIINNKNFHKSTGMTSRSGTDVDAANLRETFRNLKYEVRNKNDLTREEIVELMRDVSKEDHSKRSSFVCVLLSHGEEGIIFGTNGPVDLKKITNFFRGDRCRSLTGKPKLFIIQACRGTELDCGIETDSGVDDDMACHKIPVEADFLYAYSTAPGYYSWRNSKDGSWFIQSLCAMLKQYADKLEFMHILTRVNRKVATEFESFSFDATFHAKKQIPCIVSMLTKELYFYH

IC50 (Caspase-3) | Compound | IC50 (Exodeoxyribonuclease V)
– | O=[N+]([O-])c1ccc(N/N=C/c2ccc[nH]2)cc1 | > 119 µM (inactive)
65.8 µM (active) | CC(=O)N(/N=C1\Sc2ccccc2C1=O)c1cccc(C)c1 | –
